In patent US10590153B2, “Process for producing crystalline DTPMP” (Zschimmer & Schwarz Mohsdorf GmbH & Co. KG, priority 2014, dated 2020):

Experiment: Drying behaviour of crystallisates in dependence on residual moisture and product purity (tempering in sealed vials, visual points classification)
Format: physicochemical
Parameters: key: 5 points=sample unchanged; 4 points=sample compacted/started to dissolve; 3 points=sample visibly started to dissolve; 2 points=sample cloudy highly viscous solution; 1 point=sample dissolved to clear solution
Settings: sealed vial, shaken
Procedure: This dependency is shown by the following example for determining the drying behaviour of crystallisates in dependence on residual moisture and product purity.
A DTPMP solid isolated by recrystallisation is characterised by residues of adhering mother liquor via the quality parameters listed in the following table. Determination of the residual moisture content by means of a halogen dryer HB 43 S/Mettler Toledo is carried out isothermally at the indicated temperature using the shutoff criterion 4 (AK4=mean weight loss is <1 mg per 90 seconds):
After a purification step, which consists in suspending the solid in water and then separating it off by means of a filtering centrifuge, the following quality criteria are obtained:
The adhering residual moisture is removed stepwise from these solid samples in a rotary evaporator at 40° C. and 5 mbar vacuum, so that a series of samples with decreasing residual moisture content is prepared from each of the two purity grades (unwashed and washed).
4 ml borosilicate vials are filled with this sample material and the filling level is adjusted to ⅔ of the height of the glass by gentle tapping. In order to minimise evaporative losses, the screw cap of each vial is additionally sealed with a polyethylene film. All the samples are shaken in parallel in a tempering block on a heating and cooling shaker ThermoTwister comfort/Quantifoil Instruments GmbH for a defined period at a defined temperature and then assessed visually. Classification is made according to the following points system: […]

[1] = Temperature 35 °C, test duration 24 h
[2] = Temperature 40 °C, test duration 24 h
[3] = Temperature 45 °C, test duration 24 h
[4] = Temperature 50 °C, test duration 24 h
[5] = Temperature 55 °C, test duration 24 h
[6] = Temperature 60 °C, test duration 24 h
[7] = Temperature 65 °C, test duration 5 h
[8] = Temperature 70 °C, test duration 5 h
[9] = Temperature 75 °C, test duration 5 h
[10] = Temperature 80 °C, test duration 5 h
[11] = Temperature 85 °C, test duration 5 h
[12] = Temperature 90 °C, test duration 5 h

Visual classification at the end of the tempering step (points system) [1]	Visual classification at the end of the tempering step (points system) [2]	Visual classification at the end of the tempering step (points system) [3]	Visual classification at the end of the tempering step (points system) [4]	Visual classification at the end of the tempering step (points system) [5]	Visual classification at the end of the tempering step (points system) [6]	Visual classification at the end of the tempering step (points system) [7]	Visual classification at the end of the tempering step (points system) [8]	Visual classification at the end of the tempering step (points system) [9]	Visual classification at the end of the tempering step (points system) [10]	Visual classification at the end of the tempering step (points system) [11]	Visual classification at the end of the tempering step (points system) [12]	Structure (SMILES)
5	5	5	5	4	3	1	1	1	1	1	1	O=P(O)(O)CN(CCN(CP(=O)(O)O)CP(=O)(O)O)CCN(CP(=O)(O)O)CP(=O)(O)O [unwashed quality 31 [% by mass] residual moisture]
5	5	5	5	5	5	5	5	5	5	5	5	O=P(O)(O)CN(CCN(CP(=O)(O)O)CP(=O)(O)O)CCN(CP(=O)(O)O)CP(=O)(O)O [washed quality 11 [% by mass] residual moisture]
5	5	5	5	5	3	1	1	1	1	1	1	O=P(O)(O)CN(CCN(CP(=O)(O)O)CP(=O)(O)O)CCN(CP(=O)(O)O)CP(=O)(O)O [unwashed quality 36 [% by mass] residual moisture]
5	5	5	5	5	2	1	1	1	1	1	1	O=P(O)(O)CN(CCN(CP(=O)(O)O)CP(=O)(O)O)CCN(CP(=O)(O)O)CP(=O)(O)O [unwashed quality 51 [% by mass] residual moisture]
5	5	5	5	5	3	1	1	1	1	1	1	O=P(O)(O)CN(CCN(CP(=O)(O)O)CP(=O)(O)O)CCN(CP(=O)(O)O)CP(=O)(O)O [unwashed quality 47 [% by mass] residual moisture]
